Test results from patent publication US20230302150A1, “ANTIBODY-TLR AGONIST CONJUGATES, METHODS AND USES THEREOF” (Ambrx, Inc., priority 2020, published 2023).
Where two headings read alike, the source gives them in different places.

Target: T1, hTLR7 (Homo sapiens, UniProt Q9NYK1)
T1 construct: expressed in transfected cells; host or cells: HEK-Blue hTLR7 reporter cell line
T1 sequence (Q9NYK1 27-1049): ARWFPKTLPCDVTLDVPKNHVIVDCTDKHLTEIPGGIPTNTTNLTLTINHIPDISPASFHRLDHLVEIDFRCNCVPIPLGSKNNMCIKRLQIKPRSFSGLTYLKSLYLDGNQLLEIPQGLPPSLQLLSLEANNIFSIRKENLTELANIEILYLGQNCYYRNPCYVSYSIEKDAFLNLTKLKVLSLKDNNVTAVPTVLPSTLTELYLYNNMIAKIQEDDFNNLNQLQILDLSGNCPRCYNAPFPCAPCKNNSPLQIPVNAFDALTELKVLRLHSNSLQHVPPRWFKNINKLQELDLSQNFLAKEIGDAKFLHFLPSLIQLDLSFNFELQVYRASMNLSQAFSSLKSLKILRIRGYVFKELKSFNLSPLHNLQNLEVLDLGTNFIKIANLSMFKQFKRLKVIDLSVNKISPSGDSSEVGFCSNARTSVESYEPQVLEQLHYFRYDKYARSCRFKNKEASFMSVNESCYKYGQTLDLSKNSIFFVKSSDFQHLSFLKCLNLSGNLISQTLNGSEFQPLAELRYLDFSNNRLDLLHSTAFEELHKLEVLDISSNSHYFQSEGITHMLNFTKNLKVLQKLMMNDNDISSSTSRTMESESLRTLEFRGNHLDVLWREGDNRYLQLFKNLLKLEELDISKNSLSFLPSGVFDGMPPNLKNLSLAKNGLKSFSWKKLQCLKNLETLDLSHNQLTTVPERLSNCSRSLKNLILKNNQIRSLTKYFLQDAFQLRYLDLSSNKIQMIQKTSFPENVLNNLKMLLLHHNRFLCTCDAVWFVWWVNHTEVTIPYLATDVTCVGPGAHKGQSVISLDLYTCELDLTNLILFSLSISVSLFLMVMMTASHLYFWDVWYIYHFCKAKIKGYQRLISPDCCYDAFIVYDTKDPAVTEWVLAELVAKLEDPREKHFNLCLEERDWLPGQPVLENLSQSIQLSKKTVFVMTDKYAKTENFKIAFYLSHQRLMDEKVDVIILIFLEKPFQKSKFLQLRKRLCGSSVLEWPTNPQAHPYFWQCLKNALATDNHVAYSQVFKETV
Assay: HEK-Blue hTLR7 reporter assay (NF-kB-induced SEAP, Quanti-Blue)
Assay type: cell-based
Conditions: read-out: EC50
Procedure: HEK-Blue™ hTLR7 cells were incubated in HEK-Blue™ Detection medium and stimulated with increasing concentrations of TLR7 or TLR8 or TLR7/8 agonists. […] The EC50 was determined from dose-response curve using Prism Software.

[1] = Table 19, TLR7, drug-linkers with PEG shielding
[2] = Core 3 compounds, assay not given

Row | SMILES | EC50 [1] [nM] | EC50 [2] [nM]
1 | CCCCOc1nc(N)c2[nH]c(=O)n(Cc3ccc(CN4CCC(CCNC(=O)[C@H](Cc5ccc(O)cc5)NC(=O)CON)CC4)cc3)c2n1 [AXC-953, (S)—N-(2-(1-(4-((6-amino-2-butoxy-8-oxo-7,8-dihydro-9H-purin-9-yl)methyl)benzyl)piperidin-4-yl)ethyl)-2-(2-(aminooxy)acetamido)-3-(4-hydroxyphenyl)propanamide] | 201 | 
2 | CCCCOC(=O)Nc1nc(OCCCC)nc2c1[nH]c(=O)n2Cc1ccc(CN2CCC(CCNC(=O)CON)CC2)cc1 [AXC-954, butyl (9-(4-((4-(2-(2-(aminooxy)acetamido)ethyl)piperidin-1-yl)methyl)benzyl)-2-butoxy-8-oxo-8,9-dihydro-7H-purin-6-yl)carbamate] | 111 | 
3 | CCCCOc1nc(N)c2[nH]c(=O)n(Cc3ccc(CN4CCC(CCNC(=O)CCN5C(=O)C=CC5=O)CC4)cc3)c2n1 [AXC-955, N-(2-(1-(4-((6-amino-2-butoxy-8-oxo-7,8-dihydro-9H-purin-9-yl)methyl)benzyl)piperidin-4-yl)ethyl)-3-(2,5-dioxo-2,5-dihydro-1H-pyrrol-1-yl)propanamide] | 173 | 
4 | CCCCOc1nc(N)c2[nH]c(=O)n(Cc3ccc(CN4CCC(CCNC(=O)[C@H](Cc5ccc(O[C@@H]6O[C@H](CO)[C@@H](O)[C@H](O)[C@H]6O)cc5)NC(=O)CON)CC4)cc3)c2n1 [AXC-956, (S)—N-(2-(1-(4-((6-amino-2-butoxy-8-oxo-7,8-dihydro-9H-purin-9-yl)methyl)benzyl)piperidin-4-yl)ethyl)-2-(2-(aminooxy)acetamido)-3-(4-(((2S,3R,4S,5S,6R)-3,4,5-trihydroxy-6-(hydroxymethyl)tetrahydro-2H-pyran-2-yl)oxy)phenyl)propanamide] | 158 | 
5 | CCCCOc1nc(N)c2[nH]c(=O)n(Cc3ccc(CN4CCC(CCNC(=O)[C@@H](CCCCN)NC(=O)CON)CC4)cc3)c2n1 [AXC-958, (R)-6-amino-N-(2-(1-(4-((6-amino-2-butoxy-8-oxo-7,8-dihydro-9H-purin-9-yl)methyl)benzyl)piperidin-4-yl)ethyl)-2-(2-(aminooxy)acetamido)hexanamide] | 39.6 | 
6 | CCCCOc1nc(N)c2[nH]c(=O)n(Cc3ccc(CN4CCC(CCNC(=O)[C@@H](CCCCNC(=O)CCOCCOCCOCCOCCOCCOCCOCCOCCOCCOCCOCCOCCOCCOCCOCCOCCOCCOCCOCCOCCOCCOCCOCCOC)NC(=O)CON)CC4)cc3)c2n1 [AXC-959, (R)—N-(2-(1-(4-((6-amino-2-butoxy-8-oxo-7,8-dihydro-9H-purin-9-yl)methyl)benzyl)piperidin-4-yl)ethyl)-2-(2-(aminooxy)acetamido)-6-PEG24-amidohexanamide] | 551 | 
7 | CCCCOc1nc(N)c2[nH]c(=O)n(Cc3ccc(CN4CCC(CCNC(=O)[C@H](Cc5ccc(OP(=O)(O)O)cc5)NC(=O)CON)CC4)cc3)c2n1 [AXC-960, (S)-4-(3-((2-(1-(4-((6-amino-2-butoxy-8-oxo-7,8-dihydro-9H-purin-9-yl)methyl)benzyl)piperidin-4-yl)ethyl)amino)-2-(2-(aminooxy)acetamido)-3-oxopropyl)phenyl dihydrogen phosphate] | 267 | 
8 | CCCCOc1nc(N)c2[nH]c(=O)n(Cc3ccc(CN4CCC(CCNC(=O)[C@@H](CCCCNC(=O)CCCC(=O)NCCOCCOCCOCCOCCC(=O)NC(COCCC(=O)NCCOCCOCCOCCOCCOCCOCCOCCOC)(COCCC(=O)NCCOCCOCCOCCOCCOCCOCCOCCOC)COCCC(=O)NCCOCCOCCOCCOCCOCCOCCOCCOC)NC(=O)CON)CC4)cc3)c2n1 [AXC-961, (R)-N1-(6-((2-(1-(4-((6-amino-2-butoxy-8-oxo-7,8-dihydro-9H-purin-9-yl)methyl)benzyl)piperidin-4-yl)ethyl)amino)-5-(2-(aminooxy)acetamido)-6-oxohexyl)-N5-(dPEG4)-(mPEG8)3-glutaramide] | 856 | 
9 | CCCCOc1nc(N)c2[nH]c(=O)n(Cc3ccc(CN4CCC(CCNC(=O)[C@@H](CCCCNC(=O)CCOCCOCCOCCOCCOCCOCCOCCOC)NC(=O)CON)CC4)cc3)c2n1 [AXC-962, (R)—N-(2-(1-(4-((6-amino-2-butoxy-8-oxo-7,8-dihydro-9H-purin-9-yl)methyl)benzyl)piperidin-4-yl)ethyl)-2-(2-(aminooxy)acetamido)-6-(PEG8)amidohexanamide] | 453 | 
10 | CCCCCC(=O)Nc1nc(OCCCC)nc2c1[nH]c(=O)n2Cc1ccc(CN2CCC(CCN)CC2)cc1 [AXC-963, N-(9-(4-((4-(2-aminoethyl)piperidin-1-yl)methyl)benzyl)-2-butoxy-8-oxo-8,9-dihydro-7H-purin-6-yl)hexanamide] | 19.4 | 
11 | CCCCOc1nc(NC(C)=O)c2[nH]c(=O)n(Cc3ccc(CN4CCC(CCN)CC4)cc3)c2n1 [AXC-964, N-(9-(4-((4-(2-aminoethyl)piperidin-1-yl)methyl)benzyl)-2-butoxy-8-oxo-8,9-dihydro-7H-purin-6-yl)acetamide] | 10.3 | 
12 | CCCCCC(=O)Nc1nc(OCCCC)nc2c1[nH]c(=O)n2Cc1ccc(CN2CCC(CCNC(=O)CON)CC2)cc1 [AXC-965, N-(9-(4-((4-(2-(2-(aminooxy)acetamido)ethyl)piperidin-1-yl)methyl)benzyl)-2-butoxy-8-oxo-8,9-dihydro-7H-purin-6-yl)hexanamide] | 48.3 | 
13 | CCCCOc1nc(NC(C)=O)c2[nH]c(=O)n(Cc3ccc(CN4CCC(CCNC(=O)CON)CC4)cc3)c2n1 [AXC-966, N-(2-(1-(4-((6-acetamido-2-butoxy-8-oxo-7,8-dihydro-9H-purin-9-yl)methyl)benzyl)piperidin-4-yl)ethyl)-2-(aminooxy)acetamide] | 65.5 | 
14 | CC(C)(C)OC(=O)NCCC1CCN(Cc2ccc(Cn3ccc4c5nc(N)ncc5ccc43)cc2)CC1 [AXC-968, tert-butyl (2-(1-(4-((2-amino-7H-pyrrolo[2,3-h]quinazolin-7-yl)methyl)benzyl)piperidin-4-yl)ethyl)carbamate] |  | > 10000
15 | NCCC1CCN(Cc2ccc(Cn3ccc4c5nc(N)ncc5ccc43)cc2)CC1 [AXC-969, 7-(4-((4-(2-aminoethyl)piperidin-1-yl)methyl)benzyl)-7H-pyrrolo[2,3-h]quinazolin-2-amine] |  | > 10000
16 | NOCC(=O)NCCC1CCN(Cc2ccc(Cn3ccc4c5nc(N)ncc5ccc43)cc2)CC1 [AXC-970, N-(2-(1-(4-((2-amino-7H-pyrrolo[2,3-h]quinazolin-7-yl)methyl)benzyl)piperidin-4-yl)ethyl)-2-(aminooxy)acetamide] |  | > 10000
17 | CCCCOc1nc(NC(C)=O)c2[nH]c(=O)n(Cc3ccc(CN4CCC(CCON)CC4)cc3)c2n1 [AXC-978, N-(9-(4-((4-(2-(aminooxy)ethyl)piperidin-1-yl)methyl)benzyl)-2-butoxy-8-oxo-8,9-dihydro-7H-purin-6-yl)acetamide] | 28.9 | 
18 | CCCCOc1nc(N)c2[nH]c(=O)n(Cc3ccc(CN4CCC(CCON)CC4)cc3)c2n1 [AXC-979, 6-amino-9-(4-((4-(2-(aminooxy)ethyl)piperidin-1-yl)methyl)benzyl)-2-butoxy-7H-purin-8(9H)-one] | 21.7 | 
19 | CCCCOc1nc(NC(C)=O)c2[nH]c(=O)n(Cc3ccc(CN4CCC(C5CCNCC5)CC4)cc3)c2n1 [AXC-980, N-(9-(4-(4,4′-bipiperidin-1-ylmethyl)benzyl)-2-butoxy-8-oxo-8,9-dihydro-7H-purin-6-yl)acetamide] | 29.6 | 
